Consider 69 compounds from ChEMBL document CHEMBL3507680, “University of Dundee, Gates Library screen for HepG2 cell viability”.

Structures are written as SMILES.

The nature of this data set: Human HepG2 cell viability assay in 384 well format. The format is toxicity, cell-based. Also noted: dose 125 nL, time 70.5 hour; concentration not given beside the values. The conditions noted are these: HepG2 cells, read-out: Inhibition.
`CC(=O)N(C)Cc1ncn2c1CN(C(=O)CC1CC1)CCC2`: the cytotoxicity at 70.5 h was -9.44%.
Take `O=C([C@@H]1CCS(=O)(=O)[C@@H]2CN(c3ncccn3)C[C@@H]21)N1CCOCC1`: the cytotoxicity at 70.5 h was -1.98%.
In the case of `Cc1nc(N2CCCC2)nc2c1CCN(C(=O)c1ccoc1C)CC2` it was 1.32%.
As to `Cc1cc(C(=O)N2CCc3nc(N4CCCC4)nc(C)c3CC2)c(C)o1`, the cytotoxicity at 70.5 h is -7.18%.
As to `CN(C)CC(=O)N1CCc2sc(C(=O)N3CCOCC3)cc21`, the cytotoxicity at 70.5 h is -0.909%.
Under `CN(C)CC(=O)N1CCc2sc(C(=O)N3CCN(C)CC3)cc21` stands -2.73%; under `c1cc(CN2CC[C@@H]3CN(c4cncnc4)C[C@@H]3C2)ccn1`, -6.08%.
In the case of `O=C1N(c2ccsc2)CCC12CCCN(c1ccccn1)C2` (centres undefined) it was 5.29%; in that of `CCc1ncnc2c1CCN(S(=O)(=O)CC)CC2`, -7.89%; in that of `Cc1nc(CN2C[C@@H]3CN(C(=O)c4ccncc4)C[C@@H]3C2)cs1`, -9.65%.
In the case of `O=C(NCC1CC1)C1CN(C(=O)NC2CCCC2)Cc2cncn2C1` (centres undefined) it was -6.07%.
As to `CCOCC(=O)N1CCC2(CC1)CC(c1ccccc1)CO2` (centres undefined), the cytotoxicity at 70.5 h was -2.96%.
With `CCN(CC)Cc1cc(=O)n2c(n1)CN(C(=O)c1ccc[nH]1)CCC2`, the cytotoxicity at 70.5 h was -4.87%.
On to `COCC1CN(S(=O)(=O)c2cccc(F)c2)Cc2nccn2C1` (centres undefined), for which the cytotoxicity at 70.5 h is -7.05%.
In the case of `O=c1cc(CN2CCCC2)nc2n1CCCN(CC1CC1)C2`, the cytotoxicity at 70.5 h is 20.8%.
Turning to `CC(C)n1c2ccccc2c2c1cc(C(=O)N(C)C)n2C`, the cytotoxicity at 70.5 h was 16.4%.
As to `CC(C)n1c2ccccc2c2c1cc(C(=O)O)n2C(=O)N(C)C`, the cytotoxicity at 70.5 h was -2.89%.
With `CC(=O)N1CCC2(CCN(CC3CCOC3)C2)CC1` (centres undefined), the cytotoxicity at 70.5 h was -1.33%.
Take `O=C([C@@H]1CCCO1)N1CCOCC2(CCN(Cc3cccnc3)C2)C1` (some centres undefined): the cytotoxicity at 70.5 h came to 0.333%.
Take `CC(C)[C@H]1CN(Cc2nccn2C)C[C@@H]1NC(=O)CCS(C)(=O)=O`: the cytotoxicity at 70.5 h was -5.68%.
In the case of `CCc1cc(N(C)Cc2ccnc(C)c2)n2nc(C)c(C)c2n1`, the cytotoxicity at 70.5 h was found to be 40.9%.
As to `O=C(CSCC1CC1)N1CCC2(CCCN(C3CCOCC3)C2=O)C1` (centres undefined), the cytotoxicity at 70.5 h was -6.7%.
As to `OCC1(Cc2ccccc2F)CCCN(c2ccc3ccccc3n2)C1` (centres undefined), the cytotoxicity at 70.5 h is -1.23%.
As for `CC(C)c1cc(NC(CO)CO)n2nccc2n1`, the cytotoxicity at 70.5 h was -10.2%.
`COc1ccc(C2(C(=O)N3CC[C@@]4(O)CCNC[C@H]4C3)CCCC2)cc1`: the cytotoxicity at 70.5 h came out at 17.8%.
`CCN(Cc1nccs1)Cc1cc(Cl)ccc1OC`: the cytotoxicity at 70.5 h was determined as 2.82%.
With `CC(CN1CCCCCC1)NCc1cc(-c2ccco2)on1` (centres undefined), the cytotoxicity at 70.5 h was -12.2%.
In the case of `CN1CCN(Cc2cnn(-c3ccccc3Cl)c2)[C@H]2CS(=O)(=O)C[C@H]21` it was -5.22%; in that of `Cc1noc(C)c1CCCNC(=O)Nc1ccc2c(c1)COC2`, 7.04%.
Regarding `Cc1nc[nH]c1CN1CCN(C(=O)C2CC2)[C@H]2CS(=O)(=O)C[C@H]21`, the cytotoxicity at 70.5 h is -12.6%.
As for `Cc1c(C(=O)NCC2CCN(C)C2)n(C)c2c(C)cccc12` (centres undefined), the cytotoxicity at 70.5 h is -7.34%.
For `Cc1nc(CN2CCN(c3nc4c(s3)c(C)nn4C)CC2)cs1`, the cytotoxicity at 70.5 h was -3.02%.
As for `Cc1nn(C)c(C)c1CN(C)c1nc(C2CCCC2)nc2c1cnn2C`, the cytotoxicity at 70.5 h is 8.68%.
Regarding `CS(=O)(=O)N1CC[C@@H]2[C@@H](CCC(=O)N2CCC2=CCCCC2)C1`, the cytotoxicity at 70.5 h stood at 16.1%.
On to `Cn1ccnc1SCCNC(=O)Cn1cnc2ccccc2c1=O`, for which the cytotoxicity at 70.5 h is 1.77%.
Take `Cc1cc2ccccc2n1CCC(=O)NCCS(C)(=O)=O`: the cytotoxicity at 70.5 h is -10.9%.
Regarding `CCC(CO)N(Cc1cccc(O)c1)Cc1ccccc1C` (centres undefined), the cytotoxicity at 70.5 h was -5.23%.
Consider `O=C(CCn1ccccc1=O)N1CCCC(COc2ccc(F)cc2)C1` (centres undefined), for which the cytotoxicity at 70.5 h is -7.1%.
Take `CCOc1ccccc1CC(=O)N1C[C@@H](C(=O)O)[C@H](C2CC2)C1`: the cytotoxicity at 70.5 h is -1.88%.
For `CN1CCC(CNC(=O)c2ccc3cccc(Cl)c3n2)C1` (centres undefined), the cytotoxicity at 70.5 h is -6.3%.
Under `CCn1nc(C)c(C(C)NC(=O)c2cnc(N(C)C)nc2C)c1C` (centres undefined) stands 1.08%; under `CCN(C)C[C@@H]1CN(C(=O)c2cc(-c3ccc(F)cc3)n[nH]2)C[C@@H]1CO`, -4.68%.
In the case of `CC(C)[C@@H]1CN(C(=O)NCc2ccco2)C[C@H]1N(C)C` it was -5.48%.
As for `CN(CCO)C[C@@H]1CN(C2CCN(c3ccccc3Cl)CC2)C[C@@H]1CO`, the cytotoxicity at 70.5 h was -10.1%.
On to `CCOc1ccc(Cl)cc1C(C(=O)O)N1CCOCC1` (centres undefined), for which the cytotoxicity at 70.5 h was -4.12%.
Take `CC(C)c1cc(NCC2(N(C)C)CCCC2)ncn1`: the cytotoxicity at 70.5 h is -2.85%.
With `CN(C)CCNC(=O)CCC1CCN(C(=O)c2ccc(Cl)cc2O)CC1`, the cytotoxicity at 70.5 h was -8.44%.
For the compound `COc1ccc(C(=O)N2CCC(Oc3cccc(C)c3)(C(=O)O)CC2)o1`, the cytotoxicity at 70.5 h was 5.99%.
Regarding `COc1cccc(CN(C)C(C)c2ccon2)c1OCCn1ccnc1` (centres undefined), the cytotoxicity at 70.5 h is -19.9%.
Regarding `Cc1cccn2c(CC(=O)N3CCC(CCn4cccn4)CC3)cnc12`, the cytotoxicity at 70.5 h was determined as 13.1%.
For the compound `COCCN(C)C(C(=O)O)c1ccc(Cl)c(F)c1` (centres undefined), the cytotoxicity at 70.5 h was -5.39%.
Turning to `Cc1nn(C)c2nc(N3CCC(C(O)c4ccccn4)CC3)sc12` (centres undefined), the cytotoxicity at 70.5 h is -0.933%.
As to `N#Cc1ccc(N2CCCC3(CCC(=O)N3CC3CC3)CC2)nc1` (centres undefined), the cytotoxicity at 70.5 h is -0.642%.
As for `O=C(NCc1cc(=O)n2c(n1)CN(CC1CC1)CCC2)c1ccsc1`, the cytotoxicity at 70.5 h stood at 17.3%.
Regarding `O=C(C1CCOC1)N1C[C@H]2CN(Cc3cccnc3)C(=O)[C@H]2C1` (some centres undefined), the cytotoxicity at 70.5 h amounted to 11.7%.
In the case of `Cc1nc(N2CCCC2)nc2c1CCN(Cc1nccn1C)CC2`, the cytotoxicity at 70.5 h is -10.2%.
Consider `Cc1cc(CN2CCC3(CC2)COC(COCC2CC2)C3)no1` (centres undefined), for which the cytotoxicity at 70.5 h is -9.77%.
Turning to `COCCN1CCCn2c(nc(CNS(C)(=O)=O)cc2=O)C1`, the cytotoxicity at 70.5 h is -6.97%.
Turning to `COCCN1CCC(c2nc3ccc(NC4CCC4)cn3n2)CC1`, the cytotoxicity at 70.5 h was found to be 0.236%.
Regarding `O=C(Cc1ccncc1)N1CCC2(CC1)CC(c1ccccc1)CO2` (centres undefined), the cytotoxicity at 70.5 h was found to be 19.4%.
Turning to `CCS(=O)(=O)N1CCC2(CC1)CN(CC1CCOC1)c1ccccc12` (centres undefined), the cytotoxicity at 70.5 h is 26%.
For the compound `c1ccc2c(c1)N(CC1CCOC1)CC21CCN(c2cnccn2)CC1` (centres undefined), the cytotoxicity at 70.5 h is -0.723%.
In the case of `Cc1noc(C)c1CN1CCc2ncnc(-c3cnn(C)c3)c2CC1` it was -8.16%.
As for `N#Cc1ccc(N2CCC3(CCC(=O)N3Cc3ccncc3)CC2)nc1`, the cytotoxicity at 70.5 h was -6.82%.
`CC(C)N1CCC2(CC1)C(=O)N(CCN(C)C)c1ccccc12`: the cytotoxicity at 70.5 h is -6.47%.
Turning to `COCCN1CCO[C@H]2CN(Cc3cc[nH]n3)C[C@H]21`, the cytotoxicity at 70.5 h was -7.3%.
As to `COCCN1CCN(c2cccc(C)n2)Cc2ccc(C)nc21`, the cytotoxicity at 70.5 h was determined as 2.66%.
Under `Cc1nc(CN2C[C@@H]3CN(C(=O)Cc4ccccn4)C[C@@H]3C2)cs1` stands -4.03%; under `Cn1nccc1-c1nnn2c1COCC(CNCC1CC1)C2` (centres undefined), -2.84%.
